The term Ki denotes a dissociation constant, usually derived from enzyme kinetics or from competition with a known ligand.

The target of this test is T1, GST-tagged-Wee1 kinase (Homo sapiens, UniProt P30291).
T1 construct: purchased Carnabio 05-177
T1 sequence (P30291 whole entry): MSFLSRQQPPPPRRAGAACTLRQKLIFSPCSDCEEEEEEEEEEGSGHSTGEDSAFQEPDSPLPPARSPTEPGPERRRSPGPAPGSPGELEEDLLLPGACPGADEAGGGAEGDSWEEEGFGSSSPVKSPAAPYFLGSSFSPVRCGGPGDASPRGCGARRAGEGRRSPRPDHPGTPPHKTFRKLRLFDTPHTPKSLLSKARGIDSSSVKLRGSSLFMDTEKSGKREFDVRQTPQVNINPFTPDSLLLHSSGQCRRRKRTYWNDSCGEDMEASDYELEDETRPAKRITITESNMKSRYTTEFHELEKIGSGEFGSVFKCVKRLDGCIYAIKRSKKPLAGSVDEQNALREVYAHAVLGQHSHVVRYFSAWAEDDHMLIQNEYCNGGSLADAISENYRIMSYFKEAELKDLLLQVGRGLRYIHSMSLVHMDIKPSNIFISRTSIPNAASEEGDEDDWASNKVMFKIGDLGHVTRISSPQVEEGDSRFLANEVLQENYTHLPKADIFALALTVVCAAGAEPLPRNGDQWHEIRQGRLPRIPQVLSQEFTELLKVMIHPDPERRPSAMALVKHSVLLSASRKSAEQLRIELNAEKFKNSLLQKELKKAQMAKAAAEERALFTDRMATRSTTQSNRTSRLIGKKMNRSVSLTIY
The test is described as follows: Wee1 time-resolved fluorescence equilibrium binding assay (displacement of Oregon Green-labeled ATP-competitive probe). Conditions: TR-FRET probe displacement; 2 nM GST-Wee1, 300 nM probe, 1 hour incubation; read-out: Wee-1 binding (Ki nM). As to the method: Wee1 kinase was assayed using a time-resolved fluorescence equilibrium binding assay monitoring displacement of a rapidly reversible Oregon Green-labeled ATP-competitive kinase probe (N-(2-(2-(2-(4-(4-(5-chloro-4-(2-(1-hydroxycyclobutyl)thiazol-5-yl)-1H-pyrrolo[2,3-b]pyridin-2-yl)phenyl)piperazin-1-yl)ethoxy)ethoxy)ethyl)-2′,7′-difluoro-3′,6′-dihydroxy-3-oxo-3H-spiro[isobenzofuran-1,9′-xanthene]-5-carboxamide) by competitive Wee1 inhibitors.
In general terms: Time-resolved FRET reads energy transfer from a long-lived donor to a nearby acceptor.
For the compound `C=CCN1c2c(C(=O)NCCO)cccc2-c2nc(Nc3ccc(N4CCN(C)CC4)cc3)ncc2S1(=O)=O` [Example 62, 6-allyl-N-(2-hydroxyethyl)-2-{[4-(4-methylpiperazin-1-yl)phenyl]amino}-6H-pyrimido[5,4-c][2,1]benzothiazine-7-carboxamide 5,5-dioxide], the inhibition constant Ki was determined as 37 nM. For the compound `CN1CCN(c2ccc(Nc3ncc4c(n3)-c3sccc3N(C)S4(=O)=O)cc2)CC1` [Example 55, 6-methyl-N-[4-(4-methylpiperazin-1-yl)phenyl]-6H-pyrimido[4,5-e]thieno[3,2-c][1,2]thiazin-2-amine 5,5-dioxide], the Ki worked out at 8 nM. As for `C=CCN1c2c(C(=O)NC)cccc2-c2nc(Nc3ccc(N4CCN(C)CC4)cc3)ncc2S1(=O)=O` [Example 61, 6-allyl-N-methyl-2-{[4-(4-methylpiperazin-1-yl)phenyl]amino}-6H-pyrimido[5,4-c][2,1]benzothiazine-7-carboxamide 5,5-dioxide], the Ki came to 11 nM. On to `CCCN1c2cc(C(C)(C)O)ccc2-c2nc(Nc3ccc(N4CCN(C)CC4)cc3)ncc2S1(=O)=O` [Example 80, 2-(2-{[4-(4-methylpiperazin-1-yl)phenyl]amino}-5,5-dioxido-6-propyl-6H-pyrimido[5,4-c][2,1]benzothiazin-8-yl)propan-2-ol], for which the Ki worked out at 14 nM. Consider `C=CCN1c2ncccc2-c2nc(Nc3ccc(N4CCN(C)CC4)cn3)ncc2S1(=O)=O` [Example 102, N-[5-(4-methylpiperazin-1-yl)pyridin-2-yl]-6-(prop-2-en-1-yl)-6H-pyrido[2,3-c]pyrimido[4,5-e][1,2]thiazin-2-amine 5,5-dioxide], for which the Ki amounted to 210 nM. Turning to `CCCN1c2cc(-c3ccc(C(N)=O)cc3)ccc2-c2nc(Nc3ccc(N4CCN(C)CC4)cc3)ncc2S1(=O)=O` [Example 71, 4-(2-{[4-(4-methylpiperazin-1-yl)phenyl]amino}-5,5-dioxido-6-propyl-6H-pyrimido[5,4-c][2,1]benzothiazin-8-yl)benzamide], the Ki stood at 4 nM.

On to `CCCN1c2ccc(-c3cccnc3)cc2-c2nc(Nc3ccc(N4CCN(C)CC4)cc3)ncc2S1(=O)=O` [Example 98, N-[4-(4-methylpiperazin-1-yl)phenyl]-6-propyl-9-(pyridin-3-yl)-6H-pyrimido[5,4-c][2,1]benzothiazin-2-amine 5,5-dioxide], for which the Ki worked out at 2.4 nM. On to `C=CCN1c2ccccc2-c2nc(Nc3ccc4c(c3)CCCC4)ncc2S1(=O)=O` [Example 17, 6-allyl-N-(5,6,7,8-tetrahydronaphthalen-2-yl)-6H-pyrimido[5,4-c][2,1]benzothiazin-2-amine 5,5-dioxide], for which the Ki stood at 2040 nM.

With `C=CCN1c2ncccc2-c2nc(Nc3ccccc3)ncc2S1(=O)=O` [Example 32, 6-allyl-N-phenyl-6H-pyrido[2,3-c]pyrimido[4,5-e][1,2]thiazin-2-amine 5,5-dioxide], the Ki came to 1450 nM. In the case of `C=CCN1c2ncccc2-c2nc(Nc3ccc(C(=O)N4CCN(C)CC4)cc3)ncc2S1(=O)=O` [Example 43, {4-[(6-allyl-5,5-dioxido-6H-pyrido[2,3-c]pyrimido[4,5-e][1,2]thiazin-2-yl)amino]phenyl}(4-methylpiperazin-1-yl)methanone], the Ki came out at 56 nM. As for `COC(=O)c1ccc2c(c1)N(c1cc(C(F)(F)F)cc(C(F)(F)F)c1)S(=O)(=O)c1cnc(Nc3ccc(N4CCN(C)CC4)cc3)nc1-2` [Example 91, methyl 6-[3,5-bis(trifluoromethyl)phenyl]-2-{[4-(4-methylpiperazin-1-yl)phenyl]amino}-6H-pyrimido[5,4-c][2,1]benzothiazine-8-carboxylate 5,5-dioxide], the figure is 2700 nM; as for `COC(=O)c1ccc2c(c1)N(Cc1c(Cl)cccc1Cl)S(=O)(=O)c1cnc(Nc3ccc(N4CCN(C)CC4)cc3)nc1-2` [Example 95, methyl 6-(2,6-dichlorobenzyl)-2-{[4-(4-methylpiperazin-1-yl)phenyl]amino}-6H-pyrimido[5,4-c][2,1]benzothiazine-8-carboxylate 5,5-dioxide], 591 nM; as for `CCCN1c2ccc(Br)cc2-c2nc(Nc3ccc(N4CCN(C)CC4)cc3)ncc2S1(=O)=O` [Example 96, 9-bromo-N-[4-(4-methylpiperazin-1-yl)phenyl]-6-propyl-6H-pyrimido[5,4-c][2,1]benzothiazin-2-amine 5,5-dioxide], 2 nM. With `C=CCN1c2ncccc2-c2nc(Nc3ccc(OCCN(CC)CC)cc3)ncc2S1(=O)=O` [Example 39, 6-allyl-N-{4-[2-(diethylamino)ethoxy]phenyl}-6H-pyrido[2,3-c]pyrimido[4,5-e][1,2]thiazin-2-amine 5,5-dioxide], the Ki was 15 nM. In the case of `C=CCN1c2ncccc2-c2nc(Nc3ccc(N4CCNCC4)cc3)ncc2S1(=O)=O` [Example 34, 6-allyl-N-[4-(piperazin-1-yl)phenyl]-6H-pyrido[2,3-c]pyrimido[4,5-e][1,2]thiazin-2-amine 5,5-dioxide], the Ki came to 2 nM. In the case of `C=CCN1c2ccccc2-c2nc(Nc3ccc4c(c3)NC(=O)CO4)ncc2S1(=O)=O` [Example 6, 6-[(6-allyl-5,5-dioxido-6H-pyrimido[5,4-c][2,1]benzothiazin-2-yl)amino]-2H-1,4-benzoxazin-3(4H)-one], the Ki stood at 47 nM. On to `CCCN1c2cc(-c3cnc(N)nc3)ccc2-c2nc(Nc3ccc(N4CCN(C)CC4)cc3)ncc2S1(=O)=O` [Example 73, 8-(2-aminopyrimidin-5-yl)-N-[4-(4-methylpiperazin-1-yl)phenyl]-6-propyl-6H-pyrimido[5,4-c][2,1]benzothiazin-2-amine 5,5-dioxide], for which the Ki worked out at 3 nM.

For `CCCN1c2cc(-n3cncn3)ccc2-c2nc(Nc3ccc(N4CCN(C)CC4)cc3)ncc2S1(=O)=O` [Example 94, N-[4-(4-methylpiperazin-1-yl)phenyl]-6-propyl-8-(1H-1,2,4-triazol-1-yl)-6H-pyrimido[5,4-c][2,1]benzothiazin-2-amine 5,5-dioxide], the Ki was found to be 7 nM. `C=CCN1c2ccccc2-c2nc(Nc3ccc4c(c3)NCCC4)ncc2S1(=O)=O` [Example 30, 6-allyl-N-(1,2,3,4-tetrahydroquinolin-7-yl)-6H-pyrimido[5,4-c][2,1]benzothiazin-2-amine 5,5-dioxide]: the Ki was determined as 21 nM. In the case of `C=CCN1c2ncccc2-c2nc(Nc3ccc4c(c3)N(C(C)=O)CC4)ncc2S1(=O)=O` [Example 35, 1-{6-[(6-allyl-5,5-dioxido-6H-pyrido[2,3-c]pyrimido[4,5-e][1,2]thiazin-2-yl)amino]-2,3-dihydro-1H-indol-1-yl}ethanone], the Ki was determined as 48 nM. As for `C=CCN1c2ccccc2-c2nc(Nc3ccc4c(c3)CN(C)CC43CC3)ncc2S1(=O)=O` [Example 28, 6-allyl-N-(2′-methyl-2′,3′-dihydro-1′H-spiro[cyclopropane-1,4′-isoquinolin]-7′-yl)-6H-pyrimido[5,4-c][2,1]benzothiazin-2-amine 5,5-dioxide], the Ki came out at 1.1 nM. For the compound `C=CCN1c2ncccc2-c2nc(Nc3ccc(N4CCN(C)CC4)c(Cl)c3)ncc2S1(=O)=O` [Example 41, 6-allyl-N-[3-chloro-4-(4-methylpiperazin-1-yl)phenyl]-6H-pyrido[2,3-c]pyrimido[4,5-e][1,2]thiazin-2-amine 5,5-dioxide], the Ki was 2370 nM.

(Values after US8716297B2, “Chemical entities to be used for Wee1 inhibition for the treatment of cancer” (AbbVie Inc., priority 2011, dated 2014).)
